Measured values as given in patent US20220227769A1, “CRYSTALLINE FORM OF TELMAPITANT OR (5R,8S)-8-[[(1R)-1-[3,5-BIS(TRIFLUOROMETHYL)PHENYL]ETHOXY]METHYL]-8-PHENYL-1,3,7-TRIAZASPIRO[4.5]DECANE-2,4-DIONE” (Intervet Inc., priority 2019, published 2022).

Assays:
[1] = Competitive slurry experiments of polymorphic forms; type: physicochemical; details: competitive slurry of Form 1 with Form 2 and Form 3 in acetonitrile at room temperature (20-25° C.) and 75° C.
From the text: Three anhydrous polymorphic forms of telmapitant or (5R,8S)-8-[[(1R)-1-[3,5-bis(trifluoromethyl)phenyl]ethoxy]methyl]-8-phenyl-1,3,7-triazaspiro[4.5]decane-2,4-dione (MK-7035) have been identified during polymorph screening.

[2] = tested on: emesis induced by apomorphine IV and syrup of ipecac orally; details: dogs; centrally acting emetogens (apomorphine IV) and peripherally acting emetogens (syrup of ipecac orally); cited from earlier work

| SMILES | relative thermodynamic stability of polymorphic forms [1] | efficacy against emetogens [2] |
| --- | --- | --- |
| C[C@@H](OC[C@@]1(c2ccccc2)CC[C@]2(CN1)NC(=O)NC2=O)c1cc(C(F)(F)F)cc(C(F)(F)F)c1 [Form 1, (5R,8S)-8-[[(1R)-1-[3,5-bis(trifluoromethyl)phenyl]ethoxy]methyl]-8-phenyl-1,3,7-triazaspiro[4.5]decane-2,4-dione] | thermodynamically more stable than Form 2 and Form 3 | – |
| COc1ccc(C(C)(C)C)cc1CN[C@H]1C2CCN(CC2)[C@H]1C(c1ccccc1)c1ccccc1 [maropitant] | – | effective |
